# Test results reported in patent publication US7417050B2 (priority 2002, dated 2008).
# Biological target: α7 nAChR subtype (Rattus norvegicus, UniProt Q05941)
# Format: binding
# Conditions: read-out: KD of radioligand
# Sequence of α7 nAChR subtype (Q05941 23-502 limits assumed): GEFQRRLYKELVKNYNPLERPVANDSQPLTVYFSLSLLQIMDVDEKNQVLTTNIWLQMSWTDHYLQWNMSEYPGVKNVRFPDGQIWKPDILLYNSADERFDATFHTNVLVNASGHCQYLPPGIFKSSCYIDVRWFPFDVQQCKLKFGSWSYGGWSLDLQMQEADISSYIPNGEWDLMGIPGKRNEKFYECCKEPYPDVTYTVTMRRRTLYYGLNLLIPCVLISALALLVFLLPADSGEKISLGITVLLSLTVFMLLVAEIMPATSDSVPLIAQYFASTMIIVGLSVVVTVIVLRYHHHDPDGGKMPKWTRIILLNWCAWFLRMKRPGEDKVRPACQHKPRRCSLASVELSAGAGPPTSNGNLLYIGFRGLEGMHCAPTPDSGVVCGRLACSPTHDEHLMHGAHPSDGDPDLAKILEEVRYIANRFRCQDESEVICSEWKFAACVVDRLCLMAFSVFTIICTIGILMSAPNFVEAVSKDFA
substance,measurement,value
[^125I]-α-Bungarotoxin [[^125I]-α-BTX],Kd,1.67 nM
